Source: patent US12497614B2, “Compositions and methods for editing beta-globin for treatment of hemaglobinopathies” (Vertex Pharmaceuticals Incorporated, priority 2020, dated 2025)

What was measured:
CD34+ HSPCs [1] = assay: Erythrocyte functionality: enucleation and cell-surface markers by flow cytometry (Example 5); assay type: cell-based, human; details: T107 RNP+AAV.310 alone or combined with the inhibitor
Protocol: (§1) Following editing, cells were differentiated to erythrocytes.
The ability of edited cells to differentiate to functional erythrocytes was assessed by determining expression of erythrocyte-associated cell surface markers and enucleation using flow cytometry on day 12 and 18 post editing. Briefly, 4×10^5 cells were obtained, and half were stained for erythrocyte cell-surface markers and half were used for detection of enucleation. For staining cell-surface markers, the cells were incubated in PBS containing 1% human serum albumin (PBS-A) and an antibody cocktail of anti-CD233(BRIC6-Band3)-FITC, anti-CD71-PE, anti-CD235a(GlyA)-PE/Cy7, and anti-CD49d (α4)-VioBlue. For detection of enucleation, 2 drops of NucRed nuclear staining reagent was added to 1 mL PBS-A, and 100 μL was added to plated cells. Following incubation, both cell samples were labeled with Sytox Blue solution (1:1000 dilution in PBS-A) for live/dead analysis. Samples were then assessed by flow cytometry

NBSGW mice = assay: In vivo engraftment and persistence of gene-edits of CD34+ HSPCs edited with T107 RNP, AAV and inhibitors (Example 6); set-up: species or system mouse; details: 16 weeks, with or without inhibitor
Protocol: Following two days of in vitro culture, HSPCs were administered by intravenous injection to NBSGW mice at a dose of 0.5×10^6 cells per mouse. Recipient mice were treated with sublethal irradiation (100 cGy) at 1 day prior to administration of HSPCs.
Blood and bone marrow were extracted at 16 weeks following HSPC administration and were evaluated for presence of human hematopoietic cells using flow cytometry as described in Example 2. Additionally, the lineage of human CD45+ cells was determined using markers for human B cells, T cells, myeloid cells, and HSPCs as described in Example 2.
The long term persistence of gene-edited (in HBB gene) HSPCs was evaluated in genomic DNA extracted from mouse bone marrow collected at 16 weeks. The frequency of donor template-encoded gene-edits incorporated in HBB by HDR and the frequency of INDELs at the T107 cut site were quantified by NGS, and are shown in FIG. 7I and FIG. 7J respectively.

[2] = test system: HBB gene locus in CD34+ HSPCs; assay: HDR efficiency with DNA-PK inhibitors for editing the HBB gene in CD34+ HSPCs; NGS (Example 4); assay type: cell-based, human
Protocol: The cells were transduced with AAV donor template for 1 hour at 37° C. prior to electroporation. AAV-encoded homology donor template referred to as “AAV.310”, which is identified by sequence in Table 8. The AAV.310 donor template encodes a SCD mutation, specifically valine at the 6th codon downstream the HBB start codon (E6V). The cells were treated with AAV at a dose of 10,000 MOI.
Edited cells were evaluated for viability using trypan blue, and for incorporation of gene-edits at 2 days post-electroporation. The efficiency of HDR repair for introducing an E6V mutation in the HBB gene was quantified by NGS assay as described in Example 1, and the frequency of INDELs induced at the T107 cut site was also evaluated by NGS analysis.
The INDELs species identified in edited cells were further evaluated to determine frequency of repair by NHEJ or MMEJ repair pathways. An INDEL of ±1 nt was considered due to NHEJ repair; a deletion of −9 nt was considered due to MMEJ repair based on the microhomology present on either side of the T107 cut site. Based on percentage of total reads corresponding to these INDEL species, the ratio of gene edits due to NHEJ and MMEJ repair was evaluated. […] Thus, reduced frequency of INDELs with treatment of compound 296 or i53 is largely due to suppression of the NHEJ repair pathway.

CD34+ HSPCs [3] = assay: Globin and hemoglobin analysis by HPLC on day 18 of differentiation (Example 5); assay type: cell-based, human; details: T107 RNP+AAV.310 alone or combined with the inhibitor
Protocol: as §1
Additionally, on day 18 post-editing, expression of globin monomers was assessed in differentiated cells by HPLC as described in Example 3. […] Accordingly, the editing was sufficient to both introduce the SCD mutation in HBB and result in expression of sickle globin.
Furthermore, production of hemoglobin tetramers was also evaluated by HPLC. The analysis included quantification of HbS tetramer containing sickle-globin (α2β(E6V)2), HbF tetramer (α2γ2), HbA (α2β2), and HbA2 (α2δ2) produced by edited cells. […] Thus, the editing was also sufficient to alter hemoglobin output following in vitro differentiation.

HBB gene in CD34+ HSPCs = assay: In vitro editing with T107 RNP, AAV.310 or AAV.320 and inhibitors before transplantation; NGS and cell growth (Example 6); details: for change in cell growth if cells were edited with the inhibitor: T107 RNP+AAV.310 or AAV.320, data not shown; for frequency of HDR relative to editing with T107 RNP and AAV only / frequency of INDELs relative to editing with T107 RNP and AAV only: i53 1 μg mRNA, Compound 984 1 μM or 3 μM
Protocol: Briefly, frozen CD34+ HSPCs isolated from plerixafor-mobilized peripheral blood obtained from two healthy human donors were thawed and seeded in media with components as described in Example 1. The cells were maintained in culture, and gene-editing was performed following two days of culture. For editing, 5×10^5 CD34+ HSPCs were electroporated with RNP containing 20 μg SpCas9 and 20 μg T107 sgRNA. Electroporation was performed using the CA-137 program of the Lonza Amaxa™ 4D-Nucleofector™. The cells were transduced with AAV.310 or AAV.320 for 1 hour at 37° C. prior to electroporation at a dose of 10,000 MOI. The cells were electroporated and immediately plated in medium containing Compound 984 at 1 μM or 3 μM.
Cells were maintained in culture for two days following electroporation. Fold change in cell-growth between day 0 and day 2 post-electroporation was quantified.
Additionally, gene-edits in HBB were evaluated in CD34+ HSPCs following two days of in vitro culture.

[4] = T107 RNP + AAV.310 + 0.012 μM compound, 48 hours
[5] = T107 RNP + AAV.310 + 0.037 μM compound, 48 hours
[6] = T107 RNP + AAV.310 + 0.04 μM compound, 48 hours
[7] = T107 RNP + AAV.310 + 3.3 μM compound, 48 hours
[8] = T107 RNP + AAV.310 + 10 μM compound, 48 hours
[9] = T107 RNP + AAV.310 + i53 (1 μg mRNA)

Molecule	levels of enucleation vs control cells (CD34+ HSPCs [1])	percent chimerism in mouse bone marrow and blood (NBSGW mice)	HbA production compared to control cells (CD34+ HSPCs [3])	HbS production compared to control cells (CD34+ HSPCs [3])	expression of sickle-globin compared to control cells (CD34+ HSPCs [3])	change in cell growth if cells were edited with the inhibitor (HBB gene in CD34+ HSPCs)	frequency of HDR relative to editing with T107 RNP and AAV only (HBB gene in CD34+ HSPCs)	frequency of INDELs relative to editing with T107 RNP and AAV only (HBB gene in CD34+ HSPCs)	also measured
[2H]c1nc(C)nc([2H])c1-c1cc(NC[C@@H](C)c2cccc3c(C(=O)NC)ccnc23)ncn1 [Compound 984]	comparable	comparable	decreased	increased	increased	no substantial change	increased	decreased	% HDR [2, 4]: 44%; % INDELs [2, 4]: 39%; % HDR [2, 5]: 51%; % INDELs [2, 5]: 36%; % HDR [2, 6]: 42%; % INDELs [2, 6]: 40%; % HDR [2, 7]: 49%; % INDELs [2, 7]: 30%; % HDR [2, 8]: 48%; % INDELs [2, 8]: 33%; reduction of the frequency of INDELs at the T107 cut site compared to control cells ([2]; T107 RNP+AAV.310 with DNA-PK inhibitor): approximately 1.6 fold
i53: polypeptide inhibitor of 53BP1 (SEQ ID NO: 11), introduced as an mRNA-encoded protein (ORF SEQ ID NO: 10)	comparable	comparable	decreased	increased	increased	no substantial change	increased	decreased	% HDR [2, 9]: 35%; % INDELs [2, 9]: 42%; INDEL species due to MMEJ repair (deletion of −9 nt) ([2]; T107 RNP+AAV.310, Compound 296 at 10 μM, i53 at 1 μg mRNA): did not affect
